# Source: patent US5530126A, “Process for the preparation of substituted 6-(pyrazol-3yl)-1,4-benzoxazin-3-ones” (Monsanto Company, priority 1994, dated 1996)
# Legend:
# Format in all cases: in vivo
# Yellow nutsedge [1] = experiment: Pre-emergence herbicide test; conditions: Cyperus, read-out: % plant inhibition (Yens); for inhibition at 11210 g/ha: 11.21 kg/ha; for inhibition at 1120 g/ha: 1.12 kg/ha
# Outline: (§1)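 Seeds placed atop topsoil compacted to 0.95 to 1.27 cm below pan rim. Active ingredient (known amount) applied to seed bed in organic solvent or water. Untreated topsoil layer added to level; greenhouse growth with subirrigation; % inhibition at usually 11 days.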
# Barnyardgrass [2] = experiment: Pre-emergence herbicide test; conditions: Echinochloa crus-galli, read-out: % plant inhibition (Bygr); for inhibition at 11210 g/ha: 11.21 kg/ha; for inhibition at 1120 g/ha: 1.12 kg/ha
# Outline: as §1
# Velvetleaf [3] = experiment: Pre-emergence herbicide test; conditions: Abutilon theophrasti, read-out: % plant inhibition (Vele); for inhibition at 11210 g/ha: 11.21 kg/ha; for inhibition at 1120 g/ha: 1.12 kg/ha
# Outline: as §1
# Indian Mustard [4] = experiment: Pre-emergence herbicide test; conditions: Brassica juncea, read-out: % plant inhibition (Inmu); for inhibition at 11210 g/ha: 11.21 kg/ha; for inhibition at 1120 g/ha: 1.12 kg/ha
# Outline: as §1
# Downy Brome [5] = experiment: Pre-emergence herbicide test; conditions: Bromus tectorum, read-out: % plant inhibition (Dobr); for inhibition at 11210 g/ha: 11.21 kg/ha; for inhibition at 1120 g/ha: 1.12 kg/ha
# Outline: as §1
# Cocklebur [6] = experiment: Pre-emergence herbicide test; conditions: Xanthium strumarium, read-out: % plant inhibition (Cobu); for inhibition at 11210 g/ha: 11.21 kg/ha; for inhibition at 1120 g/ha: 1.12 kg/ha
# Outline: as §1
# Wild buckwheat [7] = experiment: Pre-emergence herbicide test; conditions: Fallopia convolvulus, read-out: % plant inhibition (Wibw); for inhibition at 11210 g/ha: 11.21 kg/ha; for inhibition at 1120 g/ha: 1.12 kg/ha
# Outline: as §1
# Morningglory [8] = experiment: Pre-emergence herbicide test; conditions: Ipomoea, read-out: % plant inhibition (Mogl); for inhibition at 11210 g/ha: 11.21 kg/ha; for inhibition at 1120 g/ha: 1.12 kg/ha
# Outline: as §1
# Seedling johnsongrass [9] = experiment: Pre-emergence herbicide test; conditions: Sorghum halepense, read-out: % plant inhibition (Sejg); for inhibition at 11210 g/ha: 11.21 kg/ha; for inhibition at 1120 g/ha: 1.12 kg/ha
# Outline: as §1
# Annual bluegrass [10] = experiment: Pre-emergence herbicide test; conditions: read-out: % plant inhibition (Anbg); for inhibition at 11210 g/ha: 11.21 kg/ha; for inhibition at 1120 g/ha: 1.12 kg/ha
# Outline: as §1
# Yellow nutsedge [11] = experiment: Post-emergence herbicide test; conditions: Cyperus, read-out: % plant inhibition (Yens); for inhibition at 11210 g/ha: 11.21 kg/ha; for inhibition at 1120 g/ha: 1.12 kg/ha
# Outline: (§2)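 Candidate compound was suspended or dissolved with about 0.4% by volume emulsifier and sprayed onto emerged plants two to three weeks old. Application volume equalled 1870 L/Ha at 170.3 kPa. Plants then returned to greenhouse; percent inhibition compared with control recorded at 10–14 days.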
# Barnyardgrass [12] = experiment: Post-emergence herbicide test; conditions: Echinochloa crus-galli, read-out: % plant inhibition (Bygr); for inhibition at 11210 g/ha: 11.21 kg/ha; for inhibition at 1120 g/ha: 1.12 kg/ha
# Outline: as §2
# Velvetleaf [13] = experiment: Post-emergence herbicide test; conditions: Abutilon theophrasti, read-out: % plant inhibition (Vele); for inhibition at 11210 g/ha: 11.21 kg/ha; for inhibition at 1120 g/ha: 1.12 kg/ha
# Outline: as §2
# Indian Mustard [14] = experiment: Post-emergence herbicide test; conditions: Brassica juncea, read-out: % plant inhibition (Inmu); for inhibition at 11210 g/ha: 11.21 kg/ha; for inhibition at 1120 g/ha: 1.12 kg/ha
# Outline: as §2
# Downy Brome [15] = experiment: Post-emergence herbicide test; conditions: Bromus tectorum, read-out: % plant inhibition (Dobr); for inhibition at 11210 g/ha: 11.21 kg/ha; for inhibition at 1120 g/ha: 1.12 kg/ha
# Outline: as §2
# Cocklebur [16] = experiment: Post-emergence herbicide test; conditions: Xanthium strumarium, read-out: % plant inhibition (Cobu); for inhibition at 11210 g/ha: 11.21 kg/ha; for inhibition at 1120 g/ha: 1.12 kg/ha
# Outline: as §2
# Wild buckwheat [17] = experiment: Post-emergence herbicide test; conditions: Fallopia convolvulus, read-out: % plant inhibition (Wibw); for inhibition at 11210 g/ha: 11.21 kg/ha; for inhibition at 1120 g/ha: 1.12 kg/ha
# Outline: as §2
# Morningglory [18] = experiment: Post-emergence herbicide test; conditions: Ipomoea, read-out: % plant inhibition (Mogl); for inhibition at 11210 g/ha: 11.21 kg/ha; for inhibition at 1120 g/ha: 1.12 kg/ha
# Outline: as §2
# Seedling johnsongrass [19] = experiment: Post-emergence herbicide test; conditions: Sorghum halepense, read-out: % plant inhibition (Sejg); for inhibition at 11210 g/ha: 11.21 kg/ha; for inhibition at 1120 g/ha: 1.12 kg/ha
# Outline: as §2
# Annual bluegrass [20] = experiment: Post-emergence herbicide test; conditions: read-out: % plant inhibition (Anbg); for inhibition at 11210 g/ha: 11.21 kg/ha; for inhibition at 1120 g/ha: 1.12 kg/ha
# Outline: as §2
Compound,inhibition at 11210 g/ha (Yellow nutsedge [1]),inhibition at 11210 g/ha (Barnyardgrass [2]),inhibition at 11210 g/ha (Velvetleaf [3]),inhibition at 11210 g/ha (Indian Mustard [4]),inhibition at 11210 g/ha (Downy Brome [5]),inhibition at 11210 g/ha (Cocklebur [6]),inhibition at 11210 g/ha (Wild buckwheat [7]),inhibition at 11210 g/ha (Morningglory [8]),inhibition at 11210 g/ha (Seedling johnsongrass [9]),inhibition at 11210 g/ha (Annual bluegrass [10]),inhibition at 11210 g/ha (Yellow nutsedge [11]),inhibition at 11210 g/ha (Barnyardgrass [12]),inhibition at 11210 g/ha (Velvetleaf [13]),inhibition at 11210 g/ha (Indian Mustard [14]),inhibition at 11210 g/ha (Downy Brome [15]),inhibition at 11210 g/ha (Cocklebur [16]),inhibition at 11210 g/ha (Wild buckwheat [17]),inhibition at 11210 g/ha (Morningglory [18]),inhibition at 11210 g/ha (Seedling johnsongrass [19]),inhibition at 11210 g/ha (Annual bluegrass [20]),further results
"Cn1nc(-c2cc(CBr)c(Cl)cc2F)c(Cl)c1C(F)(F)F [Compound 108, 3-[5-(bromomethyl)-4-chloro-2-fluorophenyl]-4-chloro-1-methyl-5-(trifluoromethyl)-1H-pyrazole]",20%,100%,100%,100%,100%,80%,100%,90%,90%,50%,0%,100%,100%,100%,100%,100%,100%,100%,90%,90%,–
Cn1nc(-c2cc(CCl)c(Cl)cc2F)c(Cl)c1C(F)(F)F [Compound 109],–,–,–,–,–,–,–,–,–,–,–,–,–,–,–,–,–,–,–,–,inhibition at 1120 g/ha (Yellow nutsedge [1]): 0%; inhibition at 1120 g/ha (Barnyardgrass [2]): 90%; inhibition at 1120 g/ha (Velvetleaf [3]): 90%; inhibition at 1120 g/ha (Indian Mustard [4]): 90%; inhibition at 1120 g/ha (Downy Brome [5]): 20%; inhibition at 1120 g/ha (Cocklebur [6]): 30%; inhibition at 1120 g/ha (Wild buckwheat [7]): 100%; inhibition at 1120 g/ha (Morningglory [8]): 70%; inhibition at 1120 g/ha (Seedling johnsongrass [9]): 80%; inhibition at 1120 g/ha (Annual bluegrass [10]): 20%; inhibition at 1120 g/ha (Yellow nutsedge [11]): 10%; inhibition at 1120 g/ha (Barnyardgrass [12]): 30%; inhibition at 1120 g/ha (Velvetleaf [13]): 100%; inhibition at 1120 g/ha (Indian Mustard [14]): 40%; inhibition at 1120 g/ha (Downy Brome [15]): 0%; inhibition at 1120 g/ha (Cocklebur [16]): 40%; inhibition at 1120 g/ha (Wild buckwheat [17]): 90%; inhibition at 1120 g/ha (Morningglory [18]): 60%; inhibition at 1120 g/ha (Seedling johnsongrass [19]): 20%; inhibition at 1120 g/ha (Annual bluegrass [20]): 40%
COC(=O)Cc1cc(-c2nn(C)c(C(F)(F)F)c2Cl)c(F)cc1Cl [Compound 110],–,–,–,–,–,–,–,–,–,–,–,–,–,–,–,–,–,–,–,–,inhibition at 1120 g/ha (Yellow nutsedge [1]): 0%; inhibition at 1120 g/ha (Barnyardgrass [2]): 20%; inhibition at 1120 g/ha (Velvetleaf [3]): 100%; inhibition at 1120 g/ha (Indian Mustard [4]): 80%; inhibition at 1120 g/ha (Downy Brome [5]): 0%; inhibition at 1120 g/ha (Cocklebur [6]): 50%; inhibition at 1120 g/ha (Wild buckwheat [7]): 70%; inhibition at 1120 g/ha (Morningglory [8]): 70%; inhibition at 1120 g/ha (Seedling johnsongrass [9]): 0%; inhibition at 1120 g/ha (Annual bluegrass [10]): 0%; inhibition at 1120 g/ha (Yellow nutsedge [11]): 20%; inhibition at 1120 g/ha (Barnyardgrass [12]): 70%; inhibition at 1120 g/ha (Velvetleaf [13]): 100%; inhibition at 1120 g/ha (Indian Mustard [14]): 30%; inhibition at 1120 g/ha (Downy Brome [15]): 20%; inhibition at 1120 g/ha (Cocklebur [16]): 60%; inhibition at 1120 g/ha (Wild buckwheat [17]): 100%; inhibition at 1120 g/ha (Morningglory [18]): 80%; inhibition at 1120 g/ha (Seedling johnsongrass [19]): 40%; inhibition at 1120 g/ha (Annual bluegrass [20]): 30%
Cn1nc(-c2cc(CC(=O)O)c(Cl)cc2F)c(Cl)c1C(F)(F)F [Compound 111],60%,40%,100%,100%,70%,90%,100%,100%,80%,80%,30%,60%,100%,80%,20%,100%,100%,100%,20%,0%,–
Cn1nc(-c2cc(CC(N)=O)c(Cl)cc2F)c(Cl)c1C(F)(F)F [Compound 112],80%,100%,100%,100%,20%,40%,90%,100%,90%,100%,40%,60%,100%,40%,0%,60%,70%,80%,30%,30%,–
Cn1nc(-c2cc(CC(=O)NCCCl)c(Cl)cc2F)c(Cl)c1C(F)(F)F [Compound 113],0%,80%,80%,80%,0%,0%,40%,30%,30%,10%,0%,0%,50%,0%,0%,20%,20%,30%,0%,0%,–
CNC(=O)Cc1cc(-c2nn(C)c(C(F)(F)F)c2Cl)c(F)cc1Cl [Compound 114],90%,100%,100%,100%,60%,70%,100%,100%,90%,100%,10%,0%,50%,10%,0%,20%,60%,50%,0%,10%,–
